Target: human mGluR4 (Homo sapiens (Human), UniProt Q14833)
Assay: mGluR4 potentiation assay, CHO cells transfected with human mGluR4, Ca2+-sensitive fluorescent dye, EC20 agonist
Format: cell-based
Conditions: potentiation of mGluR4; table does not state human or rat receptor
Protocol: The disclosed compounds and compositions can be evaluated for their ability to act as a potentiator of metabotropic glutamate receptor activity, in particular mGluR4 activity, by any suitable known methodology known in the art. For example, Chinese Hamster Ovary (CHO) cells transfected with human mGluR4 or HEK cells co-transfected with rat mGluR4 and the G-protein regulated Inwardly Rectifying Potassium channel (GIRK) were plated in clear bottom assay plates for assay in a Hamamatsu FDSS Fluorometric Plate Reader. The cells were loaded with either a Ca2+-sensitive fluorescent dye or the thallium responsive dye and the plates were washed and placed into a suitable kinetic plate reader. For human mGluR4 assays, a fluorescence baseline was established for 3-5 seconds, the disclosed compounds were then added to the cells, and the response in cells was measured. Approximately two and a half minutes later, a concentration of mGluR4 orthosteric agonist (e.g. glutamate or L-AP4) eliciting approximately 20% (EC20) of the maximal agonist response was added to the cells, and the response was measured. Two minutes later, a concentration of mGluR4 agonist (e.g. glutamate or L-AP4) eliciting 80% (EC80) of the maximal agonist response was added to the cells, and the response was measured. For rat mGluR4/GIRK experiments, a baseline was established for approximately five seconds, disclosed compounds were added, and either an EC20 or EC80 concentration of agonist was added approximately two and one half minutes later.
The above described assay operated in two modes. In the first mode, a range of concentrations of the disclosed compounds are added to cells, followed by a single fixed concentration of agonist. If the compound acts as a potentiatior, an EC50 value for potentiation and a maximum extent of potentiation by the compound at this concentration of agonist is determined by non-linear curve fitting. If the compound acts as a noncompetitive antagonist, an IC50 value is determined by non-linear curve fitting. In the second mode, several fixed concentrations of the disclosed compounds are added to various wells on a plate, followed by a range in concentrations of agonist for each concentration of disclosed compound. The EC50 values for the agonist at each concentration of compound are determined by non-linear curve fitting. A decrease in the EC50 value of the agonist with increasing concentrations of the sample compound (a leftward shift of the agonist concentration-response curve) is an indication of the degree of mGluR4 potentiation at a given concentration of the sample compound. A decrease in the maximal response of the agonist with increasing concentrations of the sample compounds, with or without a rightward shift in agonist potency, is an indication of the degree of noncompetitive antagonism at mGluR4. The second mode also indicates whether the sample compounds also affect the maximum response to mGluR4 to agonists.

human mGluR4, sequence (Q14833 33-912): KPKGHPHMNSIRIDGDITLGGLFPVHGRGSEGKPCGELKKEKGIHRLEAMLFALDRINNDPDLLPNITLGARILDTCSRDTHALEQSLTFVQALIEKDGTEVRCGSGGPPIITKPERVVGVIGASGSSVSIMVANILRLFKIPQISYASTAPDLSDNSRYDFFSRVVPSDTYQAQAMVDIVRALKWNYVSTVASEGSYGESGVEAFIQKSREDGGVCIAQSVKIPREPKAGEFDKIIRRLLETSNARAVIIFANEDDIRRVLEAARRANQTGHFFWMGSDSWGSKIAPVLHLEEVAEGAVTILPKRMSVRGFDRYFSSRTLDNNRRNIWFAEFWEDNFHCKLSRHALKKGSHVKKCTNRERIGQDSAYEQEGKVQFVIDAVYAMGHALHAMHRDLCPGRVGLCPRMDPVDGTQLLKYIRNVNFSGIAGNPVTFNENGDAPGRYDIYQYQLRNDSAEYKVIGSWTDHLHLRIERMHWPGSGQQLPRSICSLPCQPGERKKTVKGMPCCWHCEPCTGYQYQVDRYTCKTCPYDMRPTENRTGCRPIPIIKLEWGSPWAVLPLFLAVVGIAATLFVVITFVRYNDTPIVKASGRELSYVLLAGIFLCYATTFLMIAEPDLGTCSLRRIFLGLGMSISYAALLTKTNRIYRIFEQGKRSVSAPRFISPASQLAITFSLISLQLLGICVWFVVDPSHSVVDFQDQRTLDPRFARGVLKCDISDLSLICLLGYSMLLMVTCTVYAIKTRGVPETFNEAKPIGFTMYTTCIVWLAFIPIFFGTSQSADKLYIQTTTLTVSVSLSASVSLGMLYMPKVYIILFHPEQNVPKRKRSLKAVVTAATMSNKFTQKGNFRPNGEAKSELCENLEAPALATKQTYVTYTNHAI

SMILES	EC50 [nM]
Fc1c(Cl)cccc1Nc1n[nH]c2cccnc12 [Example 17, N-(3-chloro-2-fluorophenyl)-1H-pyrazolo[4,3-b]pyridin-3-amine]	623
Clc1cc(Nc2n[nH]c3cccnc23)ccc1Oc1ncccn1 [Example 24, N-(3-chloro-4-(pyrimidin-2-yloxy)phenyl)-1H-pyrazolo[4,3-b]pyridin-3-amine]	116
Fc1cc(F)c(Nc2n[nH]c3cccnc23)cc1Cl [Example 79, N-(5-chloro-2,4-difluorophenyl)-1H-pyrazolo[4,3-b]pyridin-3-amine]	342
Fc1ccc(Nc2n[nH]c3scnc23)cc1Cl [Example 41, N-(3-chloro-4-fluorophenyl)-1H-pyrazolo[4,3-d]thiazol-3-amine]	1180
Fc1ccc(Nc2n[nH]c3cncnc23)cc1Cl [Example 26, N-(3-chloro-4-fluorophenyl)-1H-pyrazolo[4,3-d]pyrimidin-3-amine]	3070
Clc1cc(Nc2n[nH]c3cccnc23)ccn1 [Example 23, N-(2-chloropyridin-4-yl)-1H-pyrazolo[4,3-b]pyridin-3-amine]	1490
Cc1ccc(F)c(Nc2n[nH]c3cccnc23)c1 [Example 84, N-(2-fluoro-5-methylphenyl)-1H-pyrazolo[4,3-b]pyridin-3-amine]	314
CC(C)(C)c1cccc(Nc2n[nH]c3cccnc23)c1 [Example 61, N-(3-(tert-butyl)phenyl)-1H-pyrazolo[4,3-b]pyridin-3-amine]	7930
Cc1cccc(Nc2n[nH]c3cccnc23)c1 [Example 18, N-(m-tolyl)-1H-pyrazolo[4,3-b]pyridin-3-amine]	51.4
CNc1ncc(Nc2n[nH]c3cccnc23)cc1Cl [Example 48, 3-chloro-N2-methyl-N5-(1H-pyrazolo[4,3-b]pyridin-3-yl)pyridine-2,5-diamine]	6440
Clc1ccc(Nc2n[nH]c3cccnc23)cc1Cl [Example 68, N-(3,4-dichlorophenyl)-1H-pyrazolo[4,3-b]pyridin-3-amine]	113
CS(=O)(=O)c1ccc(Nc2n[nH]c3cccnc23)cc1F [Example 58, N-(3-fluoro-4-(methylsulfonyl)phenyl)-1H-pyrazolo[4,3-b]pyridin-3-amine]	11500
Clc1cccc(Nc2c[nH]c3cccnc23)c1 [Example 25, N-(3-chlorophenyl)-1H-pyrrolo[3,2-b]pyridin-3-amine]	6360
Cc1ccc(NC(=O)Nc2n[nH]c3cccnc23)cc1C [Example 44, 1-(3,4-dimethylphenyl)-3-(1H-pyrazolo[4,3-b]pyridin-3-yl)urea]	12800
Fc1cc(F)cc(Nc2n[nH]c3cccnc23)c1 [Example 85, N-(3,5-difluorophenyl)-1H-pyrazolo[4,3-b]pyridin-3-amine]	101
FC(F)(F)c1ccc(Nc2n[nH]c3cccnc23)cc1Cl [Example 22, N-(3-chloro-4-(trifluoromethyl)phenyl)-1H-pyrazolo[4,3-b]pyridin-3-amine]	2150
FC(F)Oc1cccc(Nc2n[nH]c3cccnc23)c1 [Example 9, N-(3-(difluoromethoxy)phenyl)-1H-pyrazolo[4,3-b]pyridin-3-amine]	254
Fc1cc(Nc2n[nH]c3cccnc23)cc(C(F)(F)F)c1 [Example 62, N-(3-fluoro-5-(trifluoromethyl)phenyl)-1H-pyrazolo[4,3-b]pyridin-3-amine]	217
FC(F)(F)c1cccc(Nc2n[nH]c3cccnc23)c1 [Example 3, N-(3-(trifluoromethyl)phenyl)-1H-pyrazolo[4,3-b]pyridin-3-amine]	145
O=C(c1ccccc1F)c1ccc(Nc2n[nH]c3cccnc23)cc1Cl [Example 88, (4-((1H-pyrazolo[4,3-b]pyridin-3-yl)amino)-2-chlorophenyl)(2-fluorophenyl)methanone]	311
Fc1ccc(Nc2n[nH]c3nccnc23)cc1Cl [Example 28, N-(3-chloro-4-fluorophenyl)-1H-pyrazolo[3,4-b]pyrazin-3-amine]	156
Clc1cc(N(c2ncccn2)c2n[nH]c3cccnc23)ccc1Oc1ncccn1 [Example 27, N-(3-chloro-4-(pyrimidin-2-yloxy)phenyl)-N-(pyrimidin-2-yl)-1H-pyrazolo[4,3-b]pyridin-3-amine]	9070

SMILES	EC50 [nM]
c1cnc2c(Nc3nccs3)n[nH]c2c1 [Example 45, N-(1H-pyrazolo[4,3-b]pyridin-3-yl)thiazol-2-amine]	10000
CN1C(=O)N(c2ccc(Nc3n[nH]c4cccnc34)cc2Cl)C(=O)C1C(C)(C)C (stereo not shown) [Example 35, 3-(4-((1H-pyrazolo[4,3-b]pyridin-3-yl)amino)-2-chlorophenyl)-5-(tert-butyl)-1-methylimidazolidine-2,4-dione]	753
COc1ccc(Nc2n[nH]c3cccnc23)cc1Cl [Example 8, N-(3-chloro-4-methoxyphenyl)-1H-pyrazolo[4,3-b]pyridin-3-amine]	282
Fc1cc(Nc2n[nH]c3cccnc23)ccc1Oc1ccc(Cl)cn1 [Example 76, N-(4-((5-chloropyridin-2-yl)oxy)-3-fluorophenyl)-1H-pyrazolo[4,3-b]pyridin-3-amine]	151
Clc1cc(Cl)cc(Nc2n[nH]c3cccnc23)c1 [Example 69, N-(3,5-dichlorophenyl)-1H-pyrazolo[4,3-b]pyridin-3-amine]	43
c1cnc2c(Nc3cncnc3)n[nH]c2c1 [Example 39, N-(pyrimidin-5-yl)-1H-pyrazolo[4,3-b]pyridin-3-amine]	8990
COc1ccc(Nc2n[nH]c3cccnc23)cc1OC(F)F [Example 10, N-(3-(difluoromethoxy)-4-methoxyphenyl)-1H-pyrazolo[4,3-b]pyridin-3-amine]	885
Cn1nc2cccnc2c1Nc1ccc(F)c(Cl)c1 [Example 59, N-(3-chloro-4-fluorophenyl)-2-methyl-2H-pyrazolo[4,3-b]pyridin-3-amine]	11900
Cc1cc(C)cc(Nc2n[nH]c3cccnc23)c1 [Example 37, N-(3,5-dimethylphenyl)-1H-pyrazolo[4,3-b]pyridin-3-amine]	177
CS(=O)(=O)c1cc(Nc2n[nH]c3cccnc23)ccc1F [Example 72, N-(4-fluoro-3-(methylsulfonyl)phenyl)-1H-pyrazolo[4,3-b]pyridin-3-amine]	9100
CS(=O)(=O)c1ccc(Nc2n[nH]c3cccnc23)cc1Cl [Example 56, N-(3-chloro-4-(methylsulfonyl)phenyl)-1H-pyrazolo[4,3-b]pyridin-3-amine]	7860
Clc1ccc(Nc2n[nH]c3cccnc23)cn1 [Example 15, N-(6-chloropyridin-3-yl)-1H-pyrazolo[4,3-b]pyridin-3-amine]	5500
Fc1cc(F)c(F)c(Nc2n[nH]c3cccnc23)c1 [Example 57, N-(2,3,5-trifluorophenyl)-1H-pyrazolo[4,3-b]pyridin-3-amine]	782
c1cnc2c(NCC3CCCCC3)n[nH]c2c1 [Example 49, N-(cyclohexylmethyl)-1H-pyrazolo[4,3-b]pyridin-3-amine]	5300
Cc1cc(NC(=O)Nc2n[nH]c3cccnc23)ccc1F [Example 46, 1-(4-fluoro-3-methylphenyl)-3-(1H-pyrazolo[4,3-b]pyridin-3-yl)urea]	6840
N#Cc1ccc(Nc2n[nH]c3cccnc23)cc1Cl [Example 21, 4-((1H-pyrazolo[4,3-b]pyridin-3-yl)amino)-2-chlorobenzonitrile]	93
CC1Oc2ccc(Nc3n[nH]c4cccnc34)cc2N(C)C1=O (stereo not shown) [Example 63, 6-((1H-pyrazolo[4,3-b]pyridin-3-yl)amino)-2,4-dimethyl-2H-benzo[b][1,4]oxazin-3(4H)-one]	8340
Clc1cc(Nc2n[nH]c3cccnc23)ccc1Oc1ccccn1 [Example 52, N-(3-chloro-4-(pyridin-2-yloxy)phenyl)-1H-pyrazolo[4,3-b]pyridin-3-amine]	112
Fc1cc(Nc2n[nH]c3cccnc23)ccc1Oc1cc(C(F)(F)F)ccn1 [Example 75, N-(3-fluoro-4-((4-(trifluoromethyl)pyridin-2-yl)oxy)phenyl)-1H-pyrazolo[4,3-b]pyridin-3-amine]	497
Fc1ccc(Nc2n[nH]c3cccnc23)cc1 [Example 65, N-(4-fluorophenyl)-1H-pyrazolo[4,3-b]pyridin-3-amine]	1420
Fc1ccc(Cl)cc1Nc1n[nH]c2cccnc12 [Example 16, N-(5-chloro-2-fluorophenyl)-1H-pyrazolo[4,3-b]pyridin-3-amine]	116
